Experimental data reported in PMC4110683 (Chemistry and physics of lipids, 2013).
≈ marks a conversion by molar mass, not a printed value. Where two headings read alike, the source gives them in different places.

Assays:
P. falciparum K1 [1] = conditions: ref Suksamrarn et al., 2005; cited from earlier work
[2] = test system: L. donovani promastigotes; conditions: cited from earlier work; for Motility of L. donovani promastigotes: at levels of 100 μg/mL, ref Cunningham et al., 1972; for Motility of L. donovani promastigotes / Effectiveness towards L. donovani: in words; for IC50: read-out: IC50 L. donovani promastigotes, 2012; for IC50 / EC50 L. donovani promastigotes / Effectiveness towards L. donovani: ref Carballeira et al.; for EC50 L. donovani promastigotes / Effectiveness towards L. donovani: 2009; for MIC L. donovani promastigotes: ref Chaudhuri et al., 1986
[3] = test system: BALB/c murine macrophages; conditions: read-out: Murine macrophages BALB/c IC50; ref Carballeira et al., 2012; cited from earlier work
LdTopIB = conditions: ref Carballeira et al., cited from earlier work
M. smegmatis mc^2 155 = conditions: ref Morbidoni et al., 2006; cited from earlier work
P. falciparum K1 [4] = test: Toxicity to P. falciparum K1 strain; type: cell-based, Plasmodium falciparum; conditions: Plasmodium falciparum, K1, read-out: IC50 P. falciparum K1
PfFabG = PfFabG (Plasmodium falciparum, UniProt Q8I2S7); test: biochemical
PfFabI [5] = target: T1, PfFabI (Plasmodium falciparum, UniProt Q9BH77); test: Inhibition of PfFabI; type: biochemical
T1 sequence (Q9BH77 22-432): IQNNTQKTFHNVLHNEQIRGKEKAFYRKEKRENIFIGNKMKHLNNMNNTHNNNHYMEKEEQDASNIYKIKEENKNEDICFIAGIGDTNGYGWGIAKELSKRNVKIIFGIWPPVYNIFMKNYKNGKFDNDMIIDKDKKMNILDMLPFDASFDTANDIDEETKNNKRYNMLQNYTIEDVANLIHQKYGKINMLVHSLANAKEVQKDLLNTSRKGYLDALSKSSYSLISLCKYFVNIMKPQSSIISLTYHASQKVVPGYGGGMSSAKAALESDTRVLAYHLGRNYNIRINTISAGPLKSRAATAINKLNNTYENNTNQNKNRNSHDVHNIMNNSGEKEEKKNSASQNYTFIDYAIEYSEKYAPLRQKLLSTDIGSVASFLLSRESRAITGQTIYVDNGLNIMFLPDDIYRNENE

hTopIB [6] = target: T2, hTopIB (Homo sapiens, UniProt P11387); conditions: read-out: hTopIB EC50; relaxation activity; ref Carballeira et al., 2012; cited from earlier work
T2 sequence (P11387 1-765): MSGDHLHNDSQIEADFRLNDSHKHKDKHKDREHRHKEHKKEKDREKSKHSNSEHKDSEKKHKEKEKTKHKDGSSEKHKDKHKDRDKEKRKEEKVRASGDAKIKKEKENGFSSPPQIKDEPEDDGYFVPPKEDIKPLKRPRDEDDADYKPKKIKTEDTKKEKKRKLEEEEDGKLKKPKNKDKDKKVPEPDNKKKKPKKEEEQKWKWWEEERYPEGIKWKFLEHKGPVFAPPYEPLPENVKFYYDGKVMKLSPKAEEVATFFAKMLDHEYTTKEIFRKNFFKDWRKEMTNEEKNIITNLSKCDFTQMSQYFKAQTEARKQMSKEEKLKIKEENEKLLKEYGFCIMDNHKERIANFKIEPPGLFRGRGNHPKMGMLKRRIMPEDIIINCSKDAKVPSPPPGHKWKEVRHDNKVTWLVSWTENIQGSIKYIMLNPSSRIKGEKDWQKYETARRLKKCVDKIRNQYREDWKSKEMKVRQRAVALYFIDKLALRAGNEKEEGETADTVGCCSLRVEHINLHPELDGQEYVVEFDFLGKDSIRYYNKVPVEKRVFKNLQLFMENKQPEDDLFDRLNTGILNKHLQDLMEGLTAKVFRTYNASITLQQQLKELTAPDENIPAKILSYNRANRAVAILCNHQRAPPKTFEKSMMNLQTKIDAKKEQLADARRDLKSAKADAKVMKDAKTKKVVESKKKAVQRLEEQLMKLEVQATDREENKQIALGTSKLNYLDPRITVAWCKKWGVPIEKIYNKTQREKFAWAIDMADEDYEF

PfFabZ [7] = target: T3, PfFabZ (Plasmodium falciparum, UniProt Q965D7); test: Inhibition of PfFabZ; type: biochemical
T3 sequence (Q965D7 19-230): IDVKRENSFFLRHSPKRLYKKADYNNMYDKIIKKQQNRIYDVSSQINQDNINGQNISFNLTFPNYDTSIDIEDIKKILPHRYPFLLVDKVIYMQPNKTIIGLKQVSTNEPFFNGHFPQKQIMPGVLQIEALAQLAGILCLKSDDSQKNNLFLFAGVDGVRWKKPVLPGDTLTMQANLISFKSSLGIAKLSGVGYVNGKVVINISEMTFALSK

[8] = test system: Mycobacterium tuberculosis H37Rv; conditions: ref Morbidoni et al., 2006; cited from earlier work
[9] = test system: InhA, the enoyl-ACP reductase; conditions: in words; ref Morbidoni et al., 2006; cited from earlier work
Staphylococcus aureus = conditions: ref Konthikamee et al., 1982; cited from earlier work
Pseudomonas aeruginosa = conditions: in words; ref Konthikamee et al., 1982; cited from earlier work
Neisseria flava = conditions: ref Konthikamee et al., 1982; cited from earlier work
[10] = test system: hepatoma 7288 (HTC) cells; conditions: ref Upreti et al., 1981; cited from earlier work
PfFabI [11] = target: T1, PfFabI; conditions: with respect to crotonyl-CoA and the cofactor NADH; ref Tasdemir et al., 2010; cited from earlier work
PfFabZ [12] = target: T3, PfFabZ; conditions: with respect to the substrate; ref Tasdemir et al., 2010; cited from earlier work
Escherichia coli = conditions: in words; ref Konthikamee et al., 1982; cited from earlier work
hTopIB [13] = target: T2, hTopIB; test: Inhibition of relaxation activity of hTopIB; type: biochemical
Bacteroides fragilis = conditions: ref Konthikamee et al., 1982; cited from earlier work
[14] = test system: Leishmania infantum promastigotes; conditions: read-out: IC50 Leishmania infantum promastigotes; ref Carballeira et al., 2012; cited from earlier work
[15] = test system: FCR3 strain of P. falciparum; conditions: ref Krugliak et al., 1995; cited from earlier work
P. falciparum = conditions: in words; ref Kumaratilake et al., 1992; 1997; cited from earlier work
[16] = read-out: LdTopIB EC50, relaxation activity, 2012

In the case of `C=CCCC#CCCCCCCCCCCCC(=O)O` [scleropyric acid], the “IC50 K1 multidrug-resistant P. falciparum” value (P. falciparum K1 [1]) is listed as 7.2 µg/mL (≈ 25.9 µM).

In the case of `CCCCCCCCCC(=O)O` [n-decanoic acid], the “Motility of L. donovani promastigotes” value [2] is listed as “inhibited the motility”.

In the case of `CCCCCCCCCCCC(=O)O` [n-dodecanoic acid], the “Motility of L. donovani promastigotes” value [2] is listed as “inhibited the motility”.

In the case of `CC[C@@]1(O)C(=O)OCc2c1cc1n(c2=O)Cc2cc3ccccc3nc2-1` [CPT, camptothecin, reference compound], the IC50 [3] is given as 0.62 ± 0.13 µM and the EC50 (LdTopIB; [16]) is given as 0.67 ± 0.08 µM.

In the case of `CCCCCCCCCCCCC#CCCCC(=O)O` [5-Octadecynoic acid], the “MIC against M. smegmatis mc^2 155” value (M. smegmatis mc^2 155) is given as 360 µM (≈ 101 µg/mL).

In the case of `CCCCCCCCCCCCC#CCC(=O)O` [3-Hexadecynoic acid], the “MIC against M. smegmatis mc^2 155” value (M. smegmatis mc^2 155) is given as 20 µM (≈ 5.05 µg/mL).

In the case of `CCCCCCCCCCCC#CC(=O)O` [2-TDA, 2-tetradecynoic acid], the IC50 [3] is given as > 100 µM, the IC50 (P. falciparum K1 [4]) is given as 122 µM and the IC50 (PfFabG) is given as 24.5 µM. The IC50 [2] was 24.7 µM, the IC50 (PfFabI [5]) was 5.3 µM and the EC50 (LdTopIB; [16]) was 67.8 ± 1.1 µM. For the same compound, the EC50 (hTopIB [6]) was > 100 µM, the “MIC against M. smegmatis mc^2 155” value (M. smegmatis mc^2 155) was 266 µM (≈ 59.7 µg/mL) and the IC50 (PfFabZ [7]) was 15.6 µM.

In the case of `CCCCCCCCCCCCCC#CC(=O)O` [2-HDA, 2-hexadecynoic acid], the “MIC against Mycobacterium tuberculosis H37Rv” value [8] is listed as 20 to 25 µM, the IC50 [3] is listed as > 100 µM and the “Inhibition of InhA” value [9] is listed as “able to inhibit”. For the same compound, the “MIC Staphylococcus aureus” value (Staphylococcus aureus) was 21.4 µM (≈ 5.4 µg/mL), the IC50 (P. falciparum K1 [4]) was 41.2 µM and the IC50 (PfFabG; read-out: IC50 PfFabG, Carballeira and Tasdemir, unpublished data) was 13.9 µM. For the same compound, the “Effectiveness against Pseudomonas aeruginosa” value (Pseudomonas aeruginosa) was “not effective”, the IC50 [2] was 17.8 µM and the IC50 (PfFabI [5]; read-out: IC50 PfFabI, Carballeira and Tasdemir, unpublished data) was 1.5 µM. For the same compound, the EC50 (LdTopIB; [16]) was 28.7 ± 1.3 µM, the EC50 (hTopIB [6]) was > 100 µM and the “MIC Neisseria flava” value (Neisseria flava) was 21.4 µM (≈ 5.4 µg/mL). The “LD50, growth of cultured hepatoma 7288 (HTC) cells” value [10] was 35 to 85 µM, the “Mode of inhibition of PfFabI” value (PfFabI [11]) was “non-competitive” and the “MIC against M. smegmatis mc^2 155” value (M. smegmatis mc^2 155) was 10 µM (≈ 2.52 µg/mL). For the same compound, the “Mode of inhibition of PfFabZ” value (PfFabZ [12]) was “competitively inhibit”, the “Effectiveness against Escherichia coli” value (Escherichia coli) was “not effective” and the IC50 (hTopIB [13]) was 361 ± 1 µM. The “MIC Bacteroides fragilis” value (Bacteroides fragilis) was 21.4 µM (≈ 5.4 µg/mL) and the IC50 [14] was 14.9 µM.

For `CCCCCCCCCCC#CCCCCC(=O)O` [6-heptadecynoic, 6-heptadecynoic acid], the “EC50 L. donovani promastigotes” value [2] is listed as 1 to 6 µg/mL.

For `CCCCCCCCCCCCCCCCCCCC#CC(=O)O` [2-Docosynoic acid], the “MIC against M. smegmatis mc^2 155” value (M. smegmatis mc^2 155) is given as >300 µM.

In the case of `CCCCCCCCCCCCCCC#CCC(=O)O` [3-Octadecynoic acid], the “MIC against M. smegmatis mc^2 155” value (M. smegmatis mc^2 155) is listed as 36 µM (≈ 10.1 µg/mL).

In the case of `CCCCCCCC/C=C\CCCCCCCC(=O)O` [oleic acid, 9-cis-Octadecenoic acid, reference compound], the “IC50 killing FCR3 strain of P. falciparum” value [15] is listed as 23 µg/mL, the “Motility of L. donovani promastigotes” value [2] is listed as “no effect” and the “MIC L. donovani promastigotes” value [2] is listed as 90 µM (≈ 25.4 µg/mL). The “Parasite killing of P. falciparum” value (P. falciparum) was “negligible parasite killing”.

For `CCCCCCCCCCCCCCCCCC(=O)O` [octadecanoic acid], the “MIC L. donovani promastigotes” value [2] is given as 1390 µM (≈ 395 µg/mL).

For `CC/C=C\C/C=C\C/C=C\CCCCCCCC(=O)O` [linolenic acid], the “IC50 killing FCR3 strain of P. falciparum” value [15] is given as 92 µg/mL.

For `CCCCCCCCCCCCCC#CCCC(=O)O` [4-Octadecynoic acid], the “MIC against M. smegmatis mc^2 155” value (M. smegmatis mc^2 155) is listed as >300 µM.

For `CCCCCCCCCCCCCCCCC(=O)O` [n-heptadecanoic acid, reference compound], the “Effectiveness towards L. donovani” value [2] is listed as “not effective”.

For `CCCCCCCCCCCCCCCCCCCC(=O)O` [n-eicosanoic acid, reference compound], the “Effectiveness towards L. donovani” value [2] is listed as “not effective”.

In the case of `CCCCC/C=C\C/C=C\CCCCCCCC(=O)O` [linoleic acid], the “IC50 killing FCR3 strain of P. falciparum” value [15] is given as 76 µg/mL.

For `CCCCCCCCCCCCCC#CCCCCC(=O)O` [6-icosynoic acid], the “EC50 L. donovani promastigotes” value [2] is given as 1 to 6 µg/mL and the EC50 (LdTopIB; read-out: EC50 LdTopIB, 2009) is given as 36 to 49 µM.

In the case of `CCCCCCCCCCCCCCCCCC#CC(=O)O` [2-Eicosynoic acid], the “MIC against M. smegmatis mc^2 155” value (M. smegmatis mc^2 155) is given as >300 µM.

In the case of `CCCCCCCCCCCCCCCC(=O)O` [16:0, hexadecanoic acid, reference compound], the IC50 (P. falciparum K1 [4]) is listed as > 100 µM, the IC50 (PfFabG) is listed as > 100 µM and the “Motility of L. donovani promastigotes” value [2] is listed as “inhibited the motility”. For the same compound, the IC50 (PfFabI [5]) was > 100 µM and the IC50 (PfFabZ [7]) was > 100 µM.

In the case of `CCCCCCCCCCCC#CCCC(=O)O` [4-Hexadecynoic acid], the “MIC against M. smegmatis mc^2 155” value (M. smegmatis mc^2 155) is given as 30 µM (≈ 7.57 µg/mL).

In the case of `CCCCCCCCCC#CC(=O)O` [2-Dodecynoic acid], the “MIC against M. smegmatis mc^2 155” value (M. smegmatis mc^2 155) is listed as >300 µM.

For `CCCCCCCCCCC#CCCCC(=O)O` [5-Hexadecynoic acid], the “MIC against M. smegmatis mc^2 155” value (M. smegmatis mc^2 155) is given as 80 µM (≈ 20.2 µg/mL).

For `CCCCCCCCCCCCCCCCC#CC(=O)O` [2-Nonadecynoic acid], the “MIC against Mycobacterium tuberculosis H37Rv” value [8] is given as 20 to 25 µM and the “MIC against M. smegmatis mc^2 155” value (M. smegmatis mc^2 155) is given as 35 µM (≈ 10.3 µg/mL).
